{"source": "paper PMC8500670", "about": "“A selective WDR5 degrader inhibits acute myeloid leukemia in patient-derived mouse models” (Science translational medicine, 2021)", "key": {"[1]": {"target": "SET1b Complex (Homo sapiens, UniProt Q9UPS6)", "sequence (Q15291 whole entry)": "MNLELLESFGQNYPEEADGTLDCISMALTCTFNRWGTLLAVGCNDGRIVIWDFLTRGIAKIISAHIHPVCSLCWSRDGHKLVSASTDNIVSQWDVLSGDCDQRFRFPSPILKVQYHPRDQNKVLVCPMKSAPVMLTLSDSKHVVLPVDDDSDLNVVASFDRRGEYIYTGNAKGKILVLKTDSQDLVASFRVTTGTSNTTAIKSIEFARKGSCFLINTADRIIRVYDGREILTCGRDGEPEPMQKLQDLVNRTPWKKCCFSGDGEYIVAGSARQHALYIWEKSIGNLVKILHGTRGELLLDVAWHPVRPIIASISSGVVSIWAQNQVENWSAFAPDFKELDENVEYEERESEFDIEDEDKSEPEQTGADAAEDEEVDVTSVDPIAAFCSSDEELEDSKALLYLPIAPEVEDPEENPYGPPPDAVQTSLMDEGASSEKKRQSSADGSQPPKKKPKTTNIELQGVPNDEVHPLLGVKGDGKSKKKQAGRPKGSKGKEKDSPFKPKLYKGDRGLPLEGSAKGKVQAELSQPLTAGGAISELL", "sequence (Q9UPS6 whole entry)": "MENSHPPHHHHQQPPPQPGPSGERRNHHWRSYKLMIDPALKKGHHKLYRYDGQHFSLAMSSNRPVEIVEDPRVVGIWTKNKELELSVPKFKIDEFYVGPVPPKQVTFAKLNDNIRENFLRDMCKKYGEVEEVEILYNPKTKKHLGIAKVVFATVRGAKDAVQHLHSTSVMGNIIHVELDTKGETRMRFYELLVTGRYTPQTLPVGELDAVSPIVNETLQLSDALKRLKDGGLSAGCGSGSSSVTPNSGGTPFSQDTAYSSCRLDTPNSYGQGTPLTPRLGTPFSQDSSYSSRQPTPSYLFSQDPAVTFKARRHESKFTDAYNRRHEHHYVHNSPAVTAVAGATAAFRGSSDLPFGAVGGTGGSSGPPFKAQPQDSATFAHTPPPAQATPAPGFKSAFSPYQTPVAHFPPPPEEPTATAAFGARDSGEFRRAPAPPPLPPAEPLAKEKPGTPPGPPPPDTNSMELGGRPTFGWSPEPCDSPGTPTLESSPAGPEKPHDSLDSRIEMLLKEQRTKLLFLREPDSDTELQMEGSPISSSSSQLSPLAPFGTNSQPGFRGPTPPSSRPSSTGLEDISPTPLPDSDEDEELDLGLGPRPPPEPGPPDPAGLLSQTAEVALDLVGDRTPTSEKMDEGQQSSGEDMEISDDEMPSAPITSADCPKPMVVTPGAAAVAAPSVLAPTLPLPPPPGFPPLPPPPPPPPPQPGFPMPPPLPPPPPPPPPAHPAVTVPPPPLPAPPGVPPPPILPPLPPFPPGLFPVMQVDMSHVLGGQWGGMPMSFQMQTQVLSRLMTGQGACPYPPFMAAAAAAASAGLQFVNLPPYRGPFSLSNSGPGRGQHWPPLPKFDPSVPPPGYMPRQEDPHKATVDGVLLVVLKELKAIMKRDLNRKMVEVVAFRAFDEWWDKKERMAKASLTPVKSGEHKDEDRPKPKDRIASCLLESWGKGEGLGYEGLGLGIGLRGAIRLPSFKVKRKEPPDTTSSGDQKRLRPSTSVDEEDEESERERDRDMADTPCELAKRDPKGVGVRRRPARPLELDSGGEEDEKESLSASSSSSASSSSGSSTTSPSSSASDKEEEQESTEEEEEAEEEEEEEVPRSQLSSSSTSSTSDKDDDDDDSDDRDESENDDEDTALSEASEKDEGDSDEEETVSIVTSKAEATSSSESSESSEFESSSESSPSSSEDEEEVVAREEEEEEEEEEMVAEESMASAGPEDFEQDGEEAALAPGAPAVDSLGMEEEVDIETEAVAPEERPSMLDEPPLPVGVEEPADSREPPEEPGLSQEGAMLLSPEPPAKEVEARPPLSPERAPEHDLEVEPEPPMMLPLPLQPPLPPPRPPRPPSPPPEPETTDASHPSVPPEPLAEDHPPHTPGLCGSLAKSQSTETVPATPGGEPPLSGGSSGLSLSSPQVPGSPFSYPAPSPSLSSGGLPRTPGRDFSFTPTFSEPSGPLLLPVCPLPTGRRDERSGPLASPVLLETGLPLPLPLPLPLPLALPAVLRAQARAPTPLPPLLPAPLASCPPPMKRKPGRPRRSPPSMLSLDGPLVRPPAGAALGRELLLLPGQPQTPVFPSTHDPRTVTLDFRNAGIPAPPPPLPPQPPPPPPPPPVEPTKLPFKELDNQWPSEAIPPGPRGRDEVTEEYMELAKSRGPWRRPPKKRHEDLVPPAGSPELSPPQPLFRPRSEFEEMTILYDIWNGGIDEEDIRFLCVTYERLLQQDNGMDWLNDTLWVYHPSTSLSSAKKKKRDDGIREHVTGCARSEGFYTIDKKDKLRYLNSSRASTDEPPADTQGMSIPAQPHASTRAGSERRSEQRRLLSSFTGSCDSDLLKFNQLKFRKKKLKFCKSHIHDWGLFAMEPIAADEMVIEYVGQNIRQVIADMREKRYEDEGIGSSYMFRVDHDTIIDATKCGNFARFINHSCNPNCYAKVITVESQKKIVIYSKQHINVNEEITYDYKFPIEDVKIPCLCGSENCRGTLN", "sequence (Q9C005 whole entry, further chain)": "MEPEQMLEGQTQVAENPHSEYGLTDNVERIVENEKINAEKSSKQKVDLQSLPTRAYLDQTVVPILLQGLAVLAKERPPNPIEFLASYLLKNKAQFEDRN", "sequence (Q9UBL3 whole entry, further chain)": "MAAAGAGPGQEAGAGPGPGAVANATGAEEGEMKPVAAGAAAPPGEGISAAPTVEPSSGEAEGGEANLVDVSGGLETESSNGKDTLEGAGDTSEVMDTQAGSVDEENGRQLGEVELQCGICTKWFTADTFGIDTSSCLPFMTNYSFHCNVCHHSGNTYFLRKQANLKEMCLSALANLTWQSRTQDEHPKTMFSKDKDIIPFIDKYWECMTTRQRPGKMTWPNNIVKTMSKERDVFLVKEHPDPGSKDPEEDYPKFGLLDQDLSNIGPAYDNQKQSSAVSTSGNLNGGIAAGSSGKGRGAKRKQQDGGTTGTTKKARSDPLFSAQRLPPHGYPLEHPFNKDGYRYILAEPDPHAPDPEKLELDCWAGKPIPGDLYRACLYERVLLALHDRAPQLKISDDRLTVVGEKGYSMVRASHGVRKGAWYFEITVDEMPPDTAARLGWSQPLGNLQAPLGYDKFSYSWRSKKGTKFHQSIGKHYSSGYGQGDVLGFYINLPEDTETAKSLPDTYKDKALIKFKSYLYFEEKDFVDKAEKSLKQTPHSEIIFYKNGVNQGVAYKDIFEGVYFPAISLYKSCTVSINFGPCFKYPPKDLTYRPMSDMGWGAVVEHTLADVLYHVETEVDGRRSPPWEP", "test": "biochemical", "parameters": "gene SETD1B; Complex; protein methyltransferase selectivity panel, enzyme activity relative to DMSO controls, single concentration in duplicate", "details": "Substrate:=Core Histone", "method": "(§1) We next assessed selectivity of MS67 against 22 protein methyltransferases (table S2) and a broad panel of common drug targets including 45 kinases (table S3) and 44 G protein–coupled receptors (GPCR), ion channels, and transporters (table S4). […] We subsequently determined that MS67 had moderate binding affinity (Ki = 1.0 ± 0.8 μM) to Sigma 2 receptor (fig. S10)."}, "[2]": {"target": "WDR5 (WD40 repeat domain protein 5) (Homo sapiens, UniProt P61964)", "test": "ITC; […]-Å crystal structure of WDR5-MS67-VCB ternary complex", "type": "binding"}, "[3]": {"target": "T1, NSD2 (Homo sapiens, UniProt O96028)", "T1 sequence (O96028 1-1365)": "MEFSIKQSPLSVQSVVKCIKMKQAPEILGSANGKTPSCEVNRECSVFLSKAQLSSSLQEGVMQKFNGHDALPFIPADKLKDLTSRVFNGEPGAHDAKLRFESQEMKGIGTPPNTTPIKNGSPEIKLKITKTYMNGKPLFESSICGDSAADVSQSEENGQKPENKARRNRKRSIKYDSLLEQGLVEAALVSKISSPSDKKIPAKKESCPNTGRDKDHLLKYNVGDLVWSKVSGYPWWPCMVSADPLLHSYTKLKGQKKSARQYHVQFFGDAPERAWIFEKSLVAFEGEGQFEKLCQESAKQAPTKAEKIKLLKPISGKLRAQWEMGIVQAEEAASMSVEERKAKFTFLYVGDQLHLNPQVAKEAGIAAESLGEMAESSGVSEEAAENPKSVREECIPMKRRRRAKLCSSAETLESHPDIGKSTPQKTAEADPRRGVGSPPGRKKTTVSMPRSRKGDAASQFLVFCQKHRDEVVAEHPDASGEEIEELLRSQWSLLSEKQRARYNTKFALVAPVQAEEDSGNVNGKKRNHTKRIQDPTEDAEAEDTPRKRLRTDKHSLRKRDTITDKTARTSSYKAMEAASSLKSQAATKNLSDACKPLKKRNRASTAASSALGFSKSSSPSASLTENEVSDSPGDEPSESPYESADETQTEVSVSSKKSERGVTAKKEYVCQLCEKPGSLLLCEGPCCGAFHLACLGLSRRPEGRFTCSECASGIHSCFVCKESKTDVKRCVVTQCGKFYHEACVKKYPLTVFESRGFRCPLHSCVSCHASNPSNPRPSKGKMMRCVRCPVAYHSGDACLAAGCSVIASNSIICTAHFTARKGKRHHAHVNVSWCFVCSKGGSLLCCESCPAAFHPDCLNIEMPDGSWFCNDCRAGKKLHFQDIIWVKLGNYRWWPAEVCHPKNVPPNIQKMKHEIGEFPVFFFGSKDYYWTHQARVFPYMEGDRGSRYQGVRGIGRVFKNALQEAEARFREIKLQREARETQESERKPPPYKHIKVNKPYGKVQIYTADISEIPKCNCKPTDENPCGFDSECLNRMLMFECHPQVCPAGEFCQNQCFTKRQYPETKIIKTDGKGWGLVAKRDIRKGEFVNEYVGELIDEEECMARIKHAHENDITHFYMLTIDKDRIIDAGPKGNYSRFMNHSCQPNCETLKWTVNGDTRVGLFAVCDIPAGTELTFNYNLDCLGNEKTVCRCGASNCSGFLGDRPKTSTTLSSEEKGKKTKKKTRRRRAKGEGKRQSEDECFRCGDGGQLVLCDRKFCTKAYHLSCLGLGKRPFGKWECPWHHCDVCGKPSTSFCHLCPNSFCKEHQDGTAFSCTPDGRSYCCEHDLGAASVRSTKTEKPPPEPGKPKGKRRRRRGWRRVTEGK", "test": "biochemical", "parameters": "protein methyltransferase selectivity panel, enzyme activity relative to DMSO controls, single concentration in duplicate", "details": "Substrate:=Nucleosomes", "method": "as §1"}, "[4]": {"target": "T2, SET7/9 (Homo sapiens, UniProt Q8WTS6)", "T2 construct": "gene SETD7", "T2 sequence (Q8WTS6 1-366)": "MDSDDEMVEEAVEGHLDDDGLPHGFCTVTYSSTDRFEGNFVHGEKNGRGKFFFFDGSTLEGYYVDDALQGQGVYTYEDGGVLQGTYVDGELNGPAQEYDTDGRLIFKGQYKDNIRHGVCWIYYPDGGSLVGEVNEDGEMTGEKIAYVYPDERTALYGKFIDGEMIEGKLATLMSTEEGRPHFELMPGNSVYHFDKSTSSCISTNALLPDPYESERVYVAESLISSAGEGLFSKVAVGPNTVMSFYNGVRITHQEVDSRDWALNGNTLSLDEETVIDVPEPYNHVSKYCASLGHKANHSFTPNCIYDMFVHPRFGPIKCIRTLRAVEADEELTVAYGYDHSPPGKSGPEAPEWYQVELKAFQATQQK", "test": "biochemical", "parameters": "protein methyltransferase selectivity panel, enzyme activity relative to DMSO controls, single concentration in duplicate", "details": "Substrate:=Core Histone", "method": "as §1"}, "[5]": {"target": "T3, SMYD3 (Homo sapiens, UniProt Q9H7B4)", "T3 sequence (Q9H7B4 1-428)": "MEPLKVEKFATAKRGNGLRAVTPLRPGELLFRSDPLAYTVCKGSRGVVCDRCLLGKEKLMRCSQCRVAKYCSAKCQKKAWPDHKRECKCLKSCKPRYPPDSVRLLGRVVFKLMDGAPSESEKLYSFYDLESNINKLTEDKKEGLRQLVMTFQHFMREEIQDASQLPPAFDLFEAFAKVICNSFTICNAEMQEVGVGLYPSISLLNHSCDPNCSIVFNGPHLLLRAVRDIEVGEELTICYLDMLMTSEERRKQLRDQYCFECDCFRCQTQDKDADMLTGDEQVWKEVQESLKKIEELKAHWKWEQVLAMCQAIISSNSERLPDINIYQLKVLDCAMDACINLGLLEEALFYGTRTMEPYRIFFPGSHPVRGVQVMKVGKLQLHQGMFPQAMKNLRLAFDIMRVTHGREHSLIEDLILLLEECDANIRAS", "test": "biochemical", "parameters": "protein methyltransferase selectivity panel, enzyme activity relative to DMSO controls, single concentration in duplicate", "details": "Substrate:=MEKK2", "method": "as §1"}, "[6]": {"target": "T4, Beta3 (Homo sapiens, UniProt P13945)", "T4 construct": "gene ADRB3", "T4 sequence (P13945 whole entry)": "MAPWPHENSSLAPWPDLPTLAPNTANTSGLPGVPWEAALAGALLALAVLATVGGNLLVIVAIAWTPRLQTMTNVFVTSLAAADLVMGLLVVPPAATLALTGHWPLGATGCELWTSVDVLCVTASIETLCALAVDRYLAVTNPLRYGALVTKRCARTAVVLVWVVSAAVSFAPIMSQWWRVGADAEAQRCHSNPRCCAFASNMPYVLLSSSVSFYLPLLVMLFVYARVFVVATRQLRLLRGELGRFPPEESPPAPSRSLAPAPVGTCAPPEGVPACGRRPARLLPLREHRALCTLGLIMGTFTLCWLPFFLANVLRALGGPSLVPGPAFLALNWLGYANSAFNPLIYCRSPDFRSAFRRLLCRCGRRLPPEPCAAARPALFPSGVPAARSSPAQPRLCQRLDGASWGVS", "test": "biochemical", "parameters": "GPCR, ion channel and transporter panel, per cent inhibition of binding, mean of four", "method": "as §1"}, "[7]": {"details": "read-out: Enzyme % Activity (relative to DMSO controls) / MS67 / 10 / Data 1:"}, "[8]": {"details": "read-out: Enzyme % Activity (relative to DMSO controls) / MS67 / 10 / Data 2:"}}, "note": "Like-named read-outs stand apart in the source and are kept apart here."}
{"compound": "Cc1ncsc1-c1ccc([C@H](C)NC(=O)[C@@H]2C[C@@H](O)CN2C(=O)[C@@H](NC(=O)CNC(=O)c2ccc(F)c(-c3ccc(N4C[C@@H](C)N(C)[C@@H](C)C4)c(NC(=O)c4c[nH]c(=O)cc4C(F)(F)F)c3)c2)C(C)(C)C)cc1", "note": "[MS67]", "values": [{"measurement": "remaining activity at 10 µM", "setting": "[1]; [7]", "value": 94.9, "unit": "%"}, {"measurement": "remaining activity at 10 µM", "setting": "[1]; [8]", "value": 92.1, "unit": "%"}, {"measurement": "Kd", "setting": "[2]", "value": "63 ± 10", "unit": "nM"}, {"measurement": "remaining activity at 10 µM", "setting": "[3]; [7]", "value": 93, "unit": "%"}, {"measurement": "remaining activity at 10 µM", "setting": "[3]; [8]", "value": 107, "unit": "%"}, {"measurement": "remaining activity at 10 µM", "setting": "[4]; [7]", "value": 99.7, "unit": "%"}, {"measurement": "remaining activity at 10 µM", "setting": "[4]; [8]", "value": 92, "unit": "%"}, {"measurement": "remaining activity at 10 µM", "setting": "[5]; [7]", "value": 103, "unit": "%"}, {"measurement": "remaining activity at 10 µM", "setting": "[5]; [8]", "value": 116, "unit": "%"}, {"measurement": "inhibition at 1 µM", "setting": "[6]", "value": 32, "unit": "%"}]}
